Measurements taken from article PMC6199744, “Development of Chemical Proteomics for the Folateome and Analysis of the Kinetoplastid Folateome” (ACS Infectious Diseases, 2018).
Like-named read-outs stand apart in the source and are kept apart here.

How the values were obtained:
Assay type in all cases: binding
[1] = biological target: T1, HeLa cell extract proteins (Homo sapiens, UniProt P12236); details: captured protein SLC25A6; HeLa
T1 construct: endogenous in cells; host or cells: HeLa cell extract
T1 sequence (P12236 1-298): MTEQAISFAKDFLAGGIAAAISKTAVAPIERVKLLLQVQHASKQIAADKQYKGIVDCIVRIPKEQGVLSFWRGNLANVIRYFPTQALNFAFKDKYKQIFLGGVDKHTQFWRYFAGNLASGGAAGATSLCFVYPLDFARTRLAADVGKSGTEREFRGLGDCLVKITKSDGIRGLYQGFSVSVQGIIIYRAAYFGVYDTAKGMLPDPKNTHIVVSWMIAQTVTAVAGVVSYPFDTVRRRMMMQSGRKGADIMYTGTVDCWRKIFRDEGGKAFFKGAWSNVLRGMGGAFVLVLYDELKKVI

[2] = biological target: T2, HeLa cell extract proteins (Homo sapiens, UniProt O00231)
T2 construct: endogenous in cells; host or cells: HeLa cell extract

[3] = biological target: T3, HeLa cell extract proteins (Homo sapiens, UniProt P12268)
T3 construct: endogenous in cells; host or cells: HeLa cell extract

[4] = biological target: T4, HeLa cell extract proteins (Homo sapiens, UniProt P19105)
T4 construct: endogenous in cells; host or cells: HeLa cell extract
T4 sequence (P19105 1-171): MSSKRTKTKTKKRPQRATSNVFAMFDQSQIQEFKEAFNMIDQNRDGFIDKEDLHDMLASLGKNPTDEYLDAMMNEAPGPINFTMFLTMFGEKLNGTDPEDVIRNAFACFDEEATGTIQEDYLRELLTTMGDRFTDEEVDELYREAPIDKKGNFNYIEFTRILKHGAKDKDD

[5] = biological target: T5, HeLa cell extract proteins (Homo sapiens, UniProt P52565)
T5 construct: endogenous in cells; host or cells: HeLa cell extract
T5 sequence (P52565 1-204): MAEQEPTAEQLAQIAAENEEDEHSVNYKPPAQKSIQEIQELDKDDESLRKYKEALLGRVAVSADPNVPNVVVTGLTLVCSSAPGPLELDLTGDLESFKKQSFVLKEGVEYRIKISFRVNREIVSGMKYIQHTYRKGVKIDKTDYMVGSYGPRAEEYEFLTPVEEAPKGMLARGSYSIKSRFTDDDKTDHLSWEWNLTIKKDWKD

[6] = biological target: T6, HeLa cell extract proteins (Homo sapiens, UniProt P55209)
T6 construct: endogenous in cells; host or cells: HeLa cell extract
T6 sequence (P55209 1-391): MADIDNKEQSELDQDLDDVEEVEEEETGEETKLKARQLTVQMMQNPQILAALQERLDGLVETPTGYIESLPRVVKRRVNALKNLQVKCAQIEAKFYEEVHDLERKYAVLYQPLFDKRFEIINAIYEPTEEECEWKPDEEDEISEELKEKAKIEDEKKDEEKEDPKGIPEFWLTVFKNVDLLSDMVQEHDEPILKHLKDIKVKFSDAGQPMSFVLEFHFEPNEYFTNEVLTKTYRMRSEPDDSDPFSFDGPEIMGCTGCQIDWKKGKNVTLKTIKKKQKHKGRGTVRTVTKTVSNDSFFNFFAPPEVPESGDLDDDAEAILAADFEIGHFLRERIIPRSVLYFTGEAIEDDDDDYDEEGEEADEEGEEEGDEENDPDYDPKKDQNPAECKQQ

[7] = biological target: T7, HeLa cell extract proteins (Homo sapiens, UniProt Q15386)
T7 construct: endogenous in cells; host or cells: HeLa cell extract
T7 sequence (Q15386 1-1083): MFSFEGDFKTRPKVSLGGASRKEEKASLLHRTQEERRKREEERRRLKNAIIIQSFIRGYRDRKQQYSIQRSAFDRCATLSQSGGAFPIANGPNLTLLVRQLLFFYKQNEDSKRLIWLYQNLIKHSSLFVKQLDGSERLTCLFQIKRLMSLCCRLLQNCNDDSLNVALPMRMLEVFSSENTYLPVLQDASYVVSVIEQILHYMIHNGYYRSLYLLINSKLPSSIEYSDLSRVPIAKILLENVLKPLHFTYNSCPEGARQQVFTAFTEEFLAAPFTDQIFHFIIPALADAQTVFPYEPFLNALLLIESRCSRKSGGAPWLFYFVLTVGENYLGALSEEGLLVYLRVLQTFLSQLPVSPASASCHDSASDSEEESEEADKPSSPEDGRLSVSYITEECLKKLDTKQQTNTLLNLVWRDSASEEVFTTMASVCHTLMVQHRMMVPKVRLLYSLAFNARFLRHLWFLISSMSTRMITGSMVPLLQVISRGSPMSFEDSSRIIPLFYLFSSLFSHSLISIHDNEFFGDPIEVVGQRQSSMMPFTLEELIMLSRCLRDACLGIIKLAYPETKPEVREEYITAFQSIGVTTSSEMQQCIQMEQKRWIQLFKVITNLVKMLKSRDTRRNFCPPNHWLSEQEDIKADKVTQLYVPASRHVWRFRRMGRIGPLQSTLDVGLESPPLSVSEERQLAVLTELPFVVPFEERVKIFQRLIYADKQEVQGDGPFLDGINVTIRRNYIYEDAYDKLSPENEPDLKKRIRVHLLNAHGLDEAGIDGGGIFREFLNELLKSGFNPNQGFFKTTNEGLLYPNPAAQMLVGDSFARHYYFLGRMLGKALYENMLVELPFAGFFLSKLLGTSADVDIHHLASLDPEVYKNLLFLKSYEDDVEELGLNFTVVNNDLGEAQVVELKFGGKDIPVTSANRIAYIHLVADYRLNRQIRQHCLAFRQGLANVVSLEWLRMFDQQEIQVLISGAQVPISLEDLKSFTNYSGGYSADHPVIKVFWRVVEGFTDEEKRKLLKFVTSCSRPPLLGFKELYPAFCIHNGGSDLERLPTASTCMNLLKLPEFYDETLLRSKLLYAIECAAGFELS

[8] = biological target: T8, HeLa cell extract proteins (Homo sapiens, UniProt Q6R327)
T8 construct: endogenous in cells; host or cells: HeLa cell extract

[9] = biological target: T9, HeLa cell extract proteins (Homo sapiens, UniProt Q9NYP7)
T9 construct: endogenous in cells; host or cells: HeLa cell extract
T9 sequence (Q9NYP7 1-299): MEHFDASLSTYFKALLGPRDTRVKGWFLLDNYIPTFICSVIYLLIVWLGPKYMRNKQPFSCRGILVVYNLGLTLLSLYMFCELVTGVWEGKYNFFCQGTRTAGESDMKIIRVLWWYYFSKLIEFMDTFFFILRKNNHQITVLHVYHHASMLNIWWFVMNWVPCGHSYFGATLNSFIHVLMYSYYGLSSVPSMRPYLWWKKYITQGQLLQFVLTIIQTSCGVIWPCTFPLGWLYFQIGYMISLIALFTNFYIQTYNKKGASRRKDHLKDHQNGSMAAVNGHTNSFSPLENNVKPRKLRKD

[10] = HeLa, protein MRCL3 (MYOSIN REGULATORY LIGHT CHAIN MRCL3 VARIANT)

T2 sequence (O00231 whole entry): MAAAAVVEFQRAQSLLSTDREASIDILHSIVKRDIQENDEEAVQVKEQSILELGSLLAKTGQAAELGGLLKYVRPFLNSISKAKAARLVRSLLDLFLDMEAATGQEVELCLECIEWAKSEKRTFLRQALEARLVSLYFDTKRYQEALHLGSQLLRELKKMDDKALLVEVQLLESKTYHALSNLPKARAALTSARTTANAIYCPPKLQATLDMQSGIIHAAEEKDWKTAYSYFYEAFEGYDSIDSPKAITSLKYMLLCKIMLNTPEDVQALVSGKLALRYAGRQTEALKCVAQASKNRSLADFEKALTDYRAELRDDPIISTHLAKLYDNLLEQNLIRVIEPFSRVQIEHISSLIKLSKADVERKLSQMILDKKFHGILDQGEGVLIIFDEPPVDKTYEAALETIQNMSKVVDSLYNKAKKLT
T8 sequence (Q6R327 whole entry): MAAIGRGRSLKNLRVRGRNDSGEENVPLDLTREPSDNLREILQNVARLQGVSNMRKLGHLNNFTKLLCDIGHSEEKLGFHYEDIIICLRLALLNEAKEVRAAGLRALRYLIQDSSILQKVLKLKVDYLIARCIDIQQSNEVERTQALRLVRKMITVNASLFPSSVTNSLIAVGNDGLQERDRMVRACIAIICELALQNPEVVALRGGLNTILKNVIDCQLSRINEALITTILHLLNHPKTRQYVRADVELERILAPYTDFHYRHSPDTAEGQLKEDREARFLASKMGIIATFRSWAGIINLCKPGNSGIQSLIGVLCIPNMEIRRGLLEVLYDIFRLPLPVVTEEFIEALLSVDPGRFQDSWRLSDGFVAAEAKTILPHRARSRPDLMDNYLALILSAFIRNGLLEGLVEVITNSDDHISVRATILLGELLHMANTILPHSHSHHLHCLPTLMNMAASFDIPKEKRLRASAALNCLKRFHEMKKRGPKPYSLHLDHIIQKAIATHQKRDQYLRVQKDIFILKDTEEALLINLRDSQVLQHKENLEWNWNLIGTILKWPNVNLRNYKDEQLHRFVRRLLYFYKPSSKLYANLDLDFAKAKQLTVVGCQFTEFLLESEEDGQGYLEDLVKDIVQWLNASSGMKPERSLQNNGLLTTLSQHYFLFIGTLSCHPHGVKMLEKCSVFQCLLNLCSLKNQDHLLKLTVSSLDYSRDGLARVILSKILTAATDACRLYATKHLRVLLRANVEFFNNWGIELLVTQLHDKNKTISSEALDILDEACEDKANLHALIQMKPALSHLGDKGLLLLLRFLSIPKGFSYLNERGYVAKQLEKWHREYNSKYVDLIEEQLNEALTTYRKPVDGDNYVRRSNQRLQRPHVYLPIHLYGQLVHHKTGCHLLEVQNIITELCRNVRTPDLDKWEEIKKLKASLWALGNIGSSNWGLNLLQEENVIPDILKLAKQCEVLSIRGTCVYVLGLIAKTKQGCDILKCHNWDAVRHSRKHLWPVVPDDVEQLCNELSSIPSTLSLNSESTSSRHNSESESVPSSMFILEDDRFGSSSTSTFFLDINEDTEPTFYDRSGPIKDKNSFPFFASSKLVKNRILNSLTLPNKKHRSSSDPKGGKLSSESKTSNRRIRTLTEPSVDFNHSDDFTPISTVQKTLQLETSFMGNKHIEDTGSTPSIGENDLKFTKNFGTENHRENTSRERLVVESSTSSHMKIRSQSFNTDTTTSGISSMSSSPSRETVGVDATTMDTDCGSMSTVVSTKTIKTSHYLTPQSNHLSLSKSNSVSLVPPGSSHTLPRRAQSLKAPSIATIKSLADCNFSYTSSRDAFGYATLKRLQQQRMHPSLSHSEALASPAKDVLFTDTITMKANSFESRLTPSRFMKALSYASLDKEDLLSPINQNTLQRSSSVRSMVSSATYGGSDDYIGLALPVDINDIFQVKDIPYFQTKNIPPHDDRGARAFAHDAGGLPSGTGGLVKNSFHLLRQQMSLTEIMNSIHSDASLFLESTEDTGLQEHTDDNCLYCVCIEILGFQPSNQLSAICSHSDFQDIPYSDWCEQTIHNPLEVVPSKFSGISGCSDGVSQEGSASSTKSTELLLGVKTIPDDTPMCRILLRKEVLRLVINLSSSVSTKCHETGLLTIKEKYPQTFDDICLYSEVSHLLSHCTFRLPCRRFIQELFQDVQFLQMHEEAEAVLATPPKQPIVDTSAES

Row | SMILES | fold changes relative to vehicle control [1] | fold changes relative to vehicle control ([2]; protein PSMD11, HeLa) | fold changes relative to vehicle control ([3]; HeLa, protein IMPDH2) | fold changes relative to vehicle control [4, 10] | fold changes relative to vehicle control ([5]; HeLa, protein ARHGDIA) | fold changes relative to vehicle control ([6]; HeLa, captured protein NAP1L1) | fold changes relative to vehicle control ([7]; HeLa, protein UBE3C) | fold changes relative to vehicle control ([8]; HeLa, protein RICTOR) | fold changes relative to vehicle control ([9]; HeLa, protein ELOVL5) | other results
1 | Nc1nc2cccc(-c3ccccc3)c2n1Cc1ccc(Cl)c(Cl)c1 [compound 3] | 1.01 |  |  |  |  |  |  |  |  | 
2 | NCCOCCOCC(=O)Nc1nc2ncc(CNc3ccc(C(=O)NC(CCC(=O)O)C(=O)O)cc3)nc2c(=O)[nH]1 (centres unmarked) [compound 6] |  | 1.11 | 1.18 | 1.43 | 1.18 | 1.19 | 1.01 | 1.11 | 0.98 | 
3 | Nc1nc2[nH]cc(CCc3ccc(C(=O)N[C@@H](CCC(=O)O)C(=O)O)cc3)c2c(=O)[nH]1 [PTX, pemetrexed] |  |  |  |  |  |  |  |  |  | fold changes relative to vehicle control [2]: 1.02; fold changes relative to vehicle control [3]: 0.97; fold changes relative to vehicle control [4]: 0.9; fold changes relative to vehicle control [5]: 1.08; fold changes relative to vehicle control [6]: 1.04; fold changes relative to vehicle control [7]: 0.96; fold changes relative to vehicle control [8]: 0.97; fold changes relative to vehicle control [9]: 0.9
4 | Nc1nc2c(c(=O)[nH]1)N(C=O)C(CNc1ccc(C(=O)N[C@@H](CCC(=O)O)C(=O)O)cc1)CN2 (some centres unmarked) [LEU, leucovorin] |  | 1.03 | 1.06 | 0.8 | 1.03 | 0.97 | 0.91 | 0.92 | 0.95 | 
5 | CCCCCCOc1ccc(Cc2cnc(N)nc2N)cc1 [compound 1] | 0.98 |  |  |  |  |  |  |  |  | 
6 | NCCCNc1ccc(C(=O)NC(CCC(=O)O)C(=O)O)cc1 (centres unmarked) [compound 7] |  | 0.9 | 1.03 | 0.93 | 1.08 | 1.06 | 1.04 | 1.11 | 1.02 | 
7 | CCCCCCOc1cccc(Cc2cnc(N)nc2N)c1 [compound 2] | 1.04 |  |  |  |  |  |  |  |  | 
